Converted amounts (≈) assume the structure as drawn.

Consider 6 compounds from patent US20210251239A1 (priority 2018, published 2021).

In one assay the test system is Fusarium verticilloides. The assay is described as follows: MTT cell viability assay for determination of IC50 for chemical fungicides. The assay is classed as cell-based. To be noted: for IC50: Fusarium, read-out: IC50 for F. verticilloides. The protocol: (§1) Assays were carried out in 1.5 mL microcentrifuge tubes. The indicated fungicides were dissolved in DMSO at a stock concentration of 1 mg/mL. Enzymes were desalted into 50 mM MES buffer, pH 6.0 using a 200 mL Sephadex G25 column with 9.5 mL/min flowrate before adding to the germination assay. […] The reaction mixture without fungicide served as a negative inhibition control, and a reaction mixture containing 0.2 mg/mL mannase acid or 20 mg/mL M-PEG (1,2-propanediol) served as a positive inhibition control. The spore germination mixture was incubated at 27° C. for 3 days. At the end of the incubation period, 200 μL of 3-(4,5-dimethylthiazol-2-yl)-2,5-diphenyltetrazolium bromide (MTT) dye was added to the existing 400 μL of assay culture and was incubated for another 3 hr at 27° C. in the dark. The tubes were then centrifuged, and the supernatants were discarded. To the residue left in the tubes, 200 μL of DMSO was added to dissolve the formazan formed by the live fungal cells. The tubes were vortexed and centrifuged again. 100 μL of the supernatant from each tube was transferred into a separate well in a 96-well microtiter plate and absorbance was measured at 540 nm. Inhibition of fungal germination and growth by enzymes was determined relative to the uninhibited control for samples without chemical fungicide, and relative to the 50% inhibited cultures for samples containing each of the chemical fungicides tested.
(§2) Each fungicide was dissolved in DMSO at 1 mg/mL concentration, then added to the germination assay at final concentrations of 0, 0.01, 0.02, 0.04, 0.06, 0.08 mg/mL.

For assay [1], the system named is Colletotrichum gleosporoides. The description is as above. The following applies: read-out: IC50 for C. gleosporoides. The format is cell-based. The method, then:
as §1, §2

The target of a further assay is Septoria nodorum. The format is cell-based.
Another assay has as its target Fusarium graminearum. The format is cell-based.
A further assay deals with Fusarium virguliforme. The assay is classed as cell-based.

As a reminder, the IC50 is the concentration needed to halve the response being measured. Regarding `OC(Cc1ccccc1Cl)(Cn1nc[nH]c1=S)C1(Cl)CC1` (centres unmarked) [Prothioconazole, prothioconazole], the figures for the half-maximal inhibitory concentration (IC50) (in the assay with Fusarium verticilloides; in assay [1]) were 22 µg/mL (≈ 63.9 µM) and 13 µg/mL (≈ 37.8 µM), respectively.
Taken in the same sequence, the figures for `CON=C(C(=O)OC)c1ccccc1CON=C(C)c1cccc(C(F)(F)F)c1` [Trifloxystrobin, trifloxystrobin] were 6 µg/mL (≈ 14.7 µM) and 18 µg/mL (≈ 44.1 µM).
As to catalase, at Septoria nodorum, the “EC50 Enzyme” value was determined as 285 µg/mL and the IC50 plus chemistry is greater than 500 µg/mL.
Consider glucose oxidase, for which the “EC50 Enzyme” value on Septoria nodorum, at Fusarium graminearum, on Botrytis cinerea and at Fusarium virguliforme was less than 1 µg/mL each time. Besides, the IC50 plus chemistry in the assay with Septoria nodorum, in the assay on Fusarium graminearum, in the assay on Botrytis cinerea and in the assay with Fusarium virguliforme was less than 1 µg/mL throughout.
With lysozyme, on Fusarium virguliforme, the “EC50 Enzyme” value is greater than 500 µg/mL and the IC50 plus chemistry came to 2 µg/mL.
As to propineb [Antracol (Propineb)], in the assay with Fusarium verticilloides (50% inhibition of germination and growth, fit IC50), the “IC50 for F. verticilloides” value was roughly 300 µg/mL.
